The target of the assay is PAR4 (Homo sapiens (Human), UniProt Q96RI0). Kind of assay: PAR4 FLIPR assay (antagonism of agonist-peptide-induced calcium mobilization). Format: cell-based. To be noted: H-Ala-Phe(4-F)-Pro-Gly-Trp-Leu-Val-Lys-Asn-Gly-NH2-induced intracellular calcium mobilization, PAR4-expressing HEK293 cells; read-out: PAR4 FLTPR assay (IC50). The procedure, abridged: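 HEK293 cells stably expressing human PAR4 (also endogenous PAR1), loaded with fluorescent calcium indicator in HBSS/20 mM HEPES; compounds added at 0.17% DMSO, read on FDSS for agonism, then 30 min RT before H-Ala-Phe(4-F)-peptide agonist challenge. Potency from 11-point concentration-response curves.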
Chain of PAR4 (Q96RI0 18-385): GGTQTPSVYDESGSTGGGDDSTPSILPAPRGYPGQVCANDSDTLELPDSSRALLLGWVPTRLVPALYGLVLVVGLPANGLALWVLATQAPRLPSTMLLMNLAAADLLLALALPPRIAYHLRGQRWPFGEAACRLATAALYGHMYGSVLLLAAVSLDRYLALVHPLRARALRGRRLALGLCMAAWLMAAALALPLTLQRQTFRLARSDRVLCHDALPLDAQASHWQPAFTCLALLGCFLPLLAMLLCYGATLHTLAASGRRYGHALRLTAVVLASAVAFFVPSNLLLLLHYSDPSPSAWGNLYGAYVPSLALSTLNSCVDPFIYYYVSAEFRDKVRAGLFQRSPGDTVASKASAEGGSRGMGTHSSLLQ
Take `COc1cnc2c(-c3nc4cc(F)c(O[C@H]5CCC[C@H]5OC(=O)Nc5cnc(C(N)=O)nc5)cc4s3)cc(C)cc2n1` [Example 52, (1R,2S)-2-((5-fluoro-2-(2-methoxy-7-methylquinoxalin-5-yl)benzo[d]thiazol-6-yl)oxy)cyclopentyl (2-carbamoylpyrimidin-5-yl)carbamate]: the IC50 turned out to be 2.5 nM. Then `COc1cnc2c(-c3nc4cc(F)c(O[C@H]5CC[C@H]5O)cc4s3)cc(C)cc2n1` [Example 60, cis-2-((5-fluoro-2-(2-methoxy-7-methylquinoxalin-5-yl)benzo[d]thiazol-6-yl)oxy)cyclobutanol (Homochiral)], with 9.8 nM; and `COc1cnc2c(-c3nc4cc(F)c(O[C@H]5CC[C@H]5OC(=O)Nc5cnc(OC[C@@H](C)O)nc5)cc4s3)cc(C)cc2n1` [Example 63], with 7.4 nM; and `COc1cnc2c(-c3nc4cc(F)c(O[C@H]5CC[C@H]5OC(=O)Nc5cnc(OCCO)nc5)cc4s3)cc(C)cc2n1` [Example 64], with 1.9 nM. Then `COc1cnc2c(-c3nc4cc(F)c(O[C@H]5CC[C@H]5OC(=O)Nc5cnc(CCO)nc5)cc4s3)cc(C)cc2n1` [Example 65], with 3.7 nM; and `COc1cnc2c(-c3nc4cc(F)c(O[C@@H]5CC[C@@H]5OC(=O)Nc5cnc(C)nc5)cc4s3)cc(C)cc2n1` [Example 67], with 0.99 nM. As for `COc1cnc2c(-c3nc4cc(F)c(O[C@@H]5CC[C@@H]5OC(=O)Nc5cnc(OCCO)nc5)cc4s3)cc(C)cc2n1` [Example 68], the IC50 was 0.75 nM. Under `COc1cnc2c(-c3nc4cc(F)c(O[C@H]5CC[C@H]5OC(=O)Nc5cnc(C)nc5)cc4s3)cc(C)cc2n1` [Example 69] stands 1.2 nM; under `COc1cnc2c(-c3nc4cc(F)c(O[C@@H]5CC[C@@H]5OC(=O)Nc5cnc(CCO)nc5)cc4s3)cc(C)cc2n1` [Example 70], 9 nM; under `COc1ccc(NC(=O)O[C@H]2CC[C@H]2Oc2cc3sc(-c4cc(C)cc5nc(OC)cnc45)nc3cc2F)cn1` [Example 72], 1.1 nM. Then `COc1ccc(NC(=O)O[C@@H]2CC[C@@H]2Oc2cc3sc(-c4cc(C)cc5nc(OC)cnc45)nc3cc2F)cn1` [Example 73], with 0.5 nM; and `CCOc1cnc2c(-c3nc4cc(F)c(O[C@@H]5CC[C@@H]5OC(=O)Nc5cnc(OCCO)nc5)cc4s3)cc(C)cc2n1` [Example 75], with 5.9 nM; and `COc1cnc2c(-c3nc4cc(F)c(O[C@@H]5CC[C@@H]5OC(=O)Nc5cnc(OCCO)nc5)cc4s3)cc(Cl)cc2c1` [Example 76], with 10 nM.

Consider `CCOc1cnc2c(-c3nc4cc(F)c(O[C@@H]5CC[C@@H]5OC(=O)Nc5cnc(OCCO)nc5)cc4s3)cc(Cl)cc2c1` [Example 77], for which the IC50 stood at 9.2 nM.

`COc1cnc2c(-c3nc4cc(F)c(O[C@@H]5CC[C@@H]5OC(=O)Nc5cnc(OCCO)nc5)cc4s3)cc(Cl)cc2n1` [Example 78]: the IC50 stood at 9.7 nM. Under `COc1cnc2c(-c3nc4cc(F)c(O[C@@H]5CC[C@@H]5OC(=O)Nc5cnc(OCCO)nc5)cc4s3)cc(C#N)cc2n1` [Example 80] stands 7 nM. Then `COc1cnc2c(-c3nc4cc(F)c(O[C@@H]5CC[C@@H]5OC(=O)Nc5cnc(OCCO)nc5)cc4s3)cc(F)cc2c1` [Example 81], with 9.2 nM; and `COc1cnc2c(-c3nc4cc(F)c(O[C@H]5CC(F)(F)C[C@H]5OC(=O)Nc5cnc(C)nc5)cc4s3)cc(C)cc2n1` [Example 100], with 1.3 nM.

The values are drawn from patent US10730868B2, “Bicyclic heteroaryl substituted compounds” (BRISTOL-MYERS SQUIBB COMPANY, priority 2016, dated 2020).
